Here are results for two compounds from patent publication US9737478B2, “Treatment of malaria” (National Institutes of Health (NIH), U.S. Dept. of Health …, priority 2009, dated 2017).

Experiment [1] concerns Plasmodium berghei ANKA (PbA). In words: Treatment of PbA-infected mice presenting clinical cerebral malaria (survival, motor score, parasitemia). The experiment is classed as in vivo, C57B1/6 mice. Conditions: for survival: mice with CM.
Description: Eight to 10-week old C57B1/6 mice (Jackson Laboratories, ME) were inoculated intraperitoneally with 1×10^6 Plasmodium berghei ANKA (PbA) parasites expressing the GFP protein (obtained from MR4-NIH, deposited by C J Anders and A Waters). Parasitemia, body weight and rectal temperature were checked daily from day 4. […] Five tests were performed: transfer arousal, locomotor activity, tail elevation, wire maneuver and righting reflex. For each test, mice received an individual score, and the sum of scores was used to create a composite score.
PbA-infected mice presenting poor righting reflex, hypothermia and/or other clinical signs of neurological involvement such as ataxia, limb paralysis, seizures and/or roll-over were treated with artemether (Artesiane, Dafra Pharma, Belgium, a kind gift of Dr Alberto Moreno, Emory University, Atlanta, Ga.) given IP at 50 mg/kg, in combination with nimodipine (Sigma, St Louis, Mo.) or vehicle (ethanol:polyethyleneglycol (PEG) 400:saline in 1:1:8 v/v). Nimodipine was dissolved in ethanol (EMD, N.J.), dispersed with polyethyleneglycol 400 (PEG, Sigma) and then saline was added (1:1:8 v/v) and mixed thoroughly. This solution was administered intraperitoneally in three different doses: 1.3 mg/kg, 4 mg/kg and 12 mg/kg. […] Parasitemia, motor behavior and rectal temperature were checked at each timepoint and daily afterwards. After treatment, parasitemia was checked by microscopical examination of Giemsa-stained blood smears to differentiate viable from dead parasites.
The subject of experiment [2] is PbA-infected mice with clinical CM. The experiment is described as follows: Intravital microscopy of pial vessels (closed cranial window) in PbA-infected mice with clinical CM. The experiment is classed as in vivo. Conditions: nimodipine 4 mg/kg IP, 30 minutes after injection.
Excerpt: Briefly, mice were anesthetized with ketamine-xylazine, the head held on a stereotaxic frame, the scalp cut off and a 3-4 mm diameter skull opening was made in the left parietal bone using a surgical drill. The exposed area was covered with a 5 mm glass cover slip glued with dental acrylic. Carprofen and ampicillin were given for 3-5 days to prevent pain, inflammation and infection. Two weeks after surgery, mice were lightly anesthetized with isoflurane (4% for induction, 1-2% for maintenance) and held on a stereotaxic frame. A panoramic picture of the window was taken and then mice were transferred to an intravital microscope stage (customized McBain, San Diego, Calif.). Body temperature was maintained using a heating pad. […] Measurements of 6-10 pial venules (diameter range: 22-80 μm, velocity range: 2-4 mm/s) and 2-6 pial arterioles (diameter range: 18-70 μm, velocity range: 3-6 mm/s) were performed in each animal, and blood flow (Q) in each individual vessel was calculated using the equation: Q=V×(D/2)2.
The next day mice were inoculated intraperitoneally with 1×10^6 PbA-GFP pRBC. The intravital microscopy procedure was repeated daily from day 4 of infection until the mice died or were euthanized. Non-infected control mice were submitted to the same procedures. […]

As for `COCCOC(=O)C1=C(C)NC(C)=C(C(=O)OC(C)C)C1c1cccc([N+](=O)[O-])c1` (stereo not shown) [nimodipine], in experiment [1] (adjunctive nimodipine at 4 and 12 mg/kg IP at 0, 12, 24, 36 h with artemether 50 mg/kg IP daily for 5 days), the survival was 60-66.6%. Further, the “increase in arteriolar blood flow” value in experiment [2] is “about 50%”.
As to `CO[C@H]1O[C@@H]2O[C@@]3(C)CC[C@H]4[C@H](C)CC[C@@H]([C@H]1C)[C@@]24OO3` [artemether], the survival in experiment [1] (artemether 50 mg/kg IP daily for 5 days plus vehicle) is 32.2%. Further, in experiment [1] (vehicle-treated group (artemether plus vehicle)), the “deaths occurring in the first 36 hours” value came to 95.2%.
